Reference: paper PMC1976805, “Preclinical pharmacokinetics of benznidazole” (British Journal of Cancer, 1984)
Read-outs that look alike come from different tables or passages of the source.

Assay: Whole plasma pharmacokinetics in dogs (HPLC)
Format: in vivo, dog
Description: Br. J. Cancer (1984), 50, 291-303 Preclinical pharmacokinetics of benznidazole P. Workman', R.A.S. White2, M.I. Walton', L.N. Owen2* & P.R. Twentyman' 1MRC Clinical Oncology and Radiotherapeutics Unit, MRC Centre, Hills Road, Cambridge CB2 2QH, and 2Department of Clinical Veterinary Medicine, University of Cambridge, Madingley Road, Cambridge CB3 OES, UK. […] We have investigated the detailed pharmacokinetics of benznidazole in mice, dogs and sheep to provide a data base for the estimation of doses required for chemosensitization in man. Pharmacokinetic behaviour was linear except at high doses in mice. Absorption was fairly rapid and bioavailability was complete following both i.p. administration in mice and oral administration in dogs. Elimination t4 values were longer than for MISO, being 90 min in mice, 4-5 h in sheep and 9-11 h in dogs. At doses giving linear kinetics, peak whole plasma concentrations per administered mgkg-1 were 0.75 jigml-1 for the i.p. route in mice and 1.8jugmlP' for the oral route in dogs. Though between 39 and 59% of plasma benznidazole was bound to protein, tissue penetration was generally good. Tissue/whole plasma ratios ranged from 59-99% for transplantable mouse tumours and from 14-70% for spontaneous dog neoplasms. Nervous tissue penetration was similar to that in tumours: brain/whole plasma ratios averaged between 61 and 76% in mice and 42% in dogs, while peripheral nerve/whole plasma ratios in dogs averaged 74%. Mean liver/whole plasma ratios were 42% and 71% in BALB/c and C3H/He mouse strains respectively. Only -5% of the administered dose was excreted unchanged in the urine, indicating the likelihood of extensive metabolism. […] Enhancement of CCNU response is likely to require circulating benznidazole concentrations of 10-30 pgml-1 and we predict that these will be obtained with oral doses of 6-20 mgkg- 1 in man. […] This enhancement, or chemosensitization, is usually greater than that seen in dose-limiting normal tissues, resulting in an improved therapeutic index. Because of the relatively high doses of MISO usually required for chemosensitization in mice (see above refs), and also because of its neurotoxicity in man (Dische et al., 1977), we have been interested in finding an improved chemosensitizer. […] The lipophilic ana- logue benznidazole (N-benzyl-(2-nitroimidazolyl) acetamide, Ro 07-1051; Radanil; Roche), the structure of which is shown in Figure 1, was selected for detailed study because of its ability to *Present address: Animal Health Trust, Small Animals Centre, Lanwades Park, Kennett, Newmarket, Suffolk CB8 7PN, UK. Correspondence: P. Workman. […] These findings have been confirmed independently by Siemann et al. (1983). Although benznidazole is used quite widely in South America to treat patients with the trypanosomal infection Chagas' disease or with mucotaneous Leishmaniasis (Barclay et al., 1978; Cerisola et al., 1978; Coura et al., 1978; Fava et al., 1978), apart from our preliminary studies (White et al., 1982) the only published data on its pharmaco- kinetics are for human plasma concentrations measured by polarography (Raaflub & Ziegler, 1979; Raaflub, 1980). Here we describe the pharmacokinetics of benznidazole in the mouse, sheep and dog, as determined by high-performance liquid chromatography (HPLC). […] The Macmillan Press Ltd., 1984 292 P. WORKMAN et al. particularly on plasma and tumour concentrations, have been used as a basis for the estimation of the benznidazole doses required in a Phase I trial of benznidazole plus CCNU, at present ongoing in our Unit. Materials and methods Animals and tumours Adult inbred male BALB/c mice were obtained from OLAC (Southern) Ltd. (Bicester, UK) and adult inbred C3H/He mice of both sexes from OLAC and our own breeding colony. Mice were housed in plastic cages on sawdust bedding made from soft white woods, and allowed laboratory chow and water ad lib. They were used at 20-35 g body wt.

[1] = collie crossbred, dog, plasma, iv, 5 mg/kg, dog C, 5 mg kg-1 i.v.
[2] = collie crossbred, dog, plasma, iv, 5 mg/kg, dog D, 5 mg kg-1 i.v.
[3] = dog A, collie crossbred 18 kg, 25 mg kg-1 oral
[4] = dog B, collie crossbred 28 kg, 25 mg kg-1 oral

AUC(0-inf) (beagle, dog, plasma, po, 50 mg/kg, dog E, 50 mg kg-1 oral): 760 µg·h/mL
half-life (beagle, dog, plasma, po, 50 mg/kg, dog E, 50 mg kg-1 oral, 95% confidence limits 5.3-6.1, read-out: elimination half-life t1/2β (converted)): 5.7 h
AUC(0-inf) (beagle, dog, plasma, po, 50 mg/kg, dog F, 50 mg kg-1 oral): 707 µg·h/mL
half-life (beagle, dog, plasma, po, 50 mg/kg, dog F, 50 mg kg-1 oral, 95% confidence limits 6.4-7.3, read-out: elimination half-life t1/2β (converted)): 6.8 h
Tmax (collie crossbred, beagle, dog, plasma, dogs, oral administration, usual range, read-out: time to peak plasma concentration): 1 to 5 h
Vd (collie crossbred, dog, plasma ultrafiltrate (unbound drug), iv, 5 mg/kg, dog C, 5 mg kg-1 i.v., read-out: volume of distribution (Vd area), unbound drug data): 2.05 L/kg
Vd (collie crossbred, dog, plasma ultrafiltrate (unbound drug), iv, 5 mg/kg, dog D, 5 mg kg-1 i.v., read-out: volume of distribution (Vd area), unbound drug data): 1.87 L/kg
half-life (collie crossbred, dog, plasma, dogs (large crossbred), summary value, read-out: elimination t1/2): 9 to 11 h
AUC(0-inf) [1]: 105 µg·h/mL
clearance [1]: 0.793 mL/min/kg
half-life (collie crossbred, dog, plasma, iv, 5 mg/kg, dog C, 5 mg kg-1 i.v., 95% confidence limits 7.1-8.1, read-out: elimination half-life t1/2β (converted)): 7.6 h
Vd (collie crossbred, dog, plasma, iv, 5 mg/kg, dog C, 5 mg kg-1 i.v., read-out: volume of distribution (Vd area), total plasma data): 0.52 L/kg
AUC(0-inf) [2]: 138 µg·h/mL
clearance [2]: 0.603 mL/min/kg
half-life (collie crossbred, dog, plasma, iv, 5 mg/kg, dog D, 5 mg kg-1 i.v., 95% confidence limits 9.2-11.4, read-out: elimination half-life t1/2β (converted)): 10.2 h
Vd (collie crossbred, dog, plasma, iv, 5 mg/kg, dog D, 5 mg kg-1 i.v., read-out: volume of distribution (Vd area), total plasma data): 0.53 L/kg
half-life (collie crossbred, dog, plasma, iv, 5 mg/kg, dogs C and D, 5 mg kg-1 i.v., read-out: distribution phase half-life t1/2α (estimated by back-stripping, about)): 0.167 to 0.417 h
AUC(0-inf) (collie crossbred, dog, plasma, po, 12.5 mg/kg, dog C, 12.5 mg kg-1 oral): 419 µg·h/mL
half-life (collie crossbred, dog, plasma, po, 12.5 mg/kg, dog C, 12.5 mg kg-1 oral, 95% confidence limits 9.7-13.3, read-out: elimination half-life t1/2β (converted)): 11.2 h
AUC(0-inf) (collie crossbred, dog, plasma, po, 12.5 mg/kg, dog D, 12.5 mg kg-1 oral): 450 µg·h/mL
half-life (collie crossbred, dog, plasma, po, 12.5 mg/kg, dog D, 12.5 mg kg-1 oral, 95% confidence limits 17.3-22.0, read-out: elimination half-life t1/2β (apparent) (converted)): 19.4 h
AUC(0-inf) (collie crossbred, dog, plasma, po, 25 mg/kg, dog A, 25 mg kg-1 oral, samples collected up to 9 h only): ~800 µg·h/mL
AUC(0-inf) (collie crossbred, dog, plasma, po, 25 mg/kg, dog B, 25 mg kg-1 oral, samples collected up to 9 h only): ~800 µg·h/mL
AUC(0-inf) (collie crossbred, dog, plasma, po, 25 mg/kg, dog C, 25 mg kg-1 oral): 687 µg·h/mL
half-life (collie crossbred, dog, plasma, po, 25 mg/kg, dog C, 25 mg kg-1 oral, 95% confidence limits 8.9-10.6, read-out: elimination half-life t1/2β (converted)): 9.7 h
AUC(0-inf) (collie crossbred, dog, plasma, po, 25 mg/kg, dog D, 25 mg kg-1 oral): 804 µg·h/mL
half-life (collie crossbred, dog, plasma, po, 25 mg/kg, dog D, 25 mg kg-1 oral, 95% confidence limits 8.9-10.6, read-out: elimination half-life t1/2β (converted)): 9.7 h
half-life (collie crossbred, dog, plasma, po, larger crossbred dogs, oral administration, read-out: elimination t1/2, range): 9.5 to 11.2 h
peak time [3]: 5 h
peak whole plasma concentration [3]: 48.4 µg/mL
peak time [4]: 3 h
peak whole plasma concentration [4]: 52.2 µg/mL
peak time (dog C, 5 mg kg-1 i.v.): 0.083 h
peak time (dog C, 12.5 mg kg-1 oral): 1 h
peak time (dog C, 25 mg kg-1 oral): 5 h
peak whole plasma concentration (dog C, collie crossbred 28 kg, 5 mg kg-1 i.v.): 12.7 µg/mL
peak whole plasma concentration (dog C, collie crossbred 28 kg, 12.5 mg kg-1 oral): 26.5 µg/mL
peak whole plasma concentration (dog C, collie crossbred 28 kg, 25 mg kg-1 oral): 38.9 µg/mL
peak time (dog D, 5 mg kg-1 i.v.): 0.083 h
peak time (dog D, 12.5 mg kg-1 oral): 12 h
SMILES: O=C(Cn1ccnc1[N+](=O)[O-])NCc1ccccc1 [benznidazole, N-benzyl-(2-nitroimidazolyl) acetamide]
